In patent US20250129049A1, “1H-PYRAZOLE-3-AMINE DERIVATIVE HAVING BICYCLIC BACKBONE” (Sumitomo Pharma Co., Ltd., priority 2021, published 2025):

Key:
[1] = tested on: ES-2 cells; experiment: Cell growth suppression experiment (ES-2); type: cell-based; conditions: Homo sapiens, 48 h, cultured 2 days, CellTiter-Glo 3D
Method: ES-2 cells were obtained from the American Type Culture Collection (ATCC). These cells were cultured at 37° C. in the presence of 5% CO2 in a McCoy's 5a medium containing 10% fetal bovine serum and 1% penicillin/streptomycin.
500 cells were seeded for each well in a 384-well plate, and the evaluated compound was added to the final DMSO concentration of 0.1% to culture the cells for 2 days. After completion of the culture, the cell viability rate was calculated using CellTiter-Glo (registered trademark) 3D Reagent (Promega, G968B).

[2] = target: CHK1 kinase (Homo sapiens (Human), UniProt O14757)
CHK1 kinase, sequence (O14757 whole entry): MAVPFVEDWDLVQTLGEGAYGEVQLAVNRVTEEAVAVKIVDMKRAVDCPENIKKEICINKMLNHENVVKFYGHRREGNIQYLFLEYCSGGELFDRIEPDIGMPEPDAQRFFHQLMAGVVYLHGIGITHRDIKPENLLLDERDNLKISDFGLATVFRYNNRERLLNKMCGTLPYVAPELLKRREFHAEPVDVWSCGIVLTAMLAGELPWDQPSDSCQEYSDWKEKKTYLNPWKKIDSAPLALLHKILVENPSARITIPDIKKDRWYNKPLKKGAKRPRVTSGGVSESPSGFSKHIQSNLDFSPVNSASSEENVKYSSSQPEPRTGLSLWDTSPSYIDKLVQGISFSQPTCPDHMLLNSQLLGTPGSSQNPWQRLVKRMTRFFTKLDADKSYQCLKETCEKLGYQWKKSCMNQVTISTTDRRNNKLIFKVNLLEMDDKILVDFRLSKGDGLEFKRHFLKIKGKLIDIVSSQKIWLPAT

[3] = target: hERG current (Homo sapiens (Human), UniProt Q12809); experiment: cell-based
hERG current, sequence (Q12809 whole entry): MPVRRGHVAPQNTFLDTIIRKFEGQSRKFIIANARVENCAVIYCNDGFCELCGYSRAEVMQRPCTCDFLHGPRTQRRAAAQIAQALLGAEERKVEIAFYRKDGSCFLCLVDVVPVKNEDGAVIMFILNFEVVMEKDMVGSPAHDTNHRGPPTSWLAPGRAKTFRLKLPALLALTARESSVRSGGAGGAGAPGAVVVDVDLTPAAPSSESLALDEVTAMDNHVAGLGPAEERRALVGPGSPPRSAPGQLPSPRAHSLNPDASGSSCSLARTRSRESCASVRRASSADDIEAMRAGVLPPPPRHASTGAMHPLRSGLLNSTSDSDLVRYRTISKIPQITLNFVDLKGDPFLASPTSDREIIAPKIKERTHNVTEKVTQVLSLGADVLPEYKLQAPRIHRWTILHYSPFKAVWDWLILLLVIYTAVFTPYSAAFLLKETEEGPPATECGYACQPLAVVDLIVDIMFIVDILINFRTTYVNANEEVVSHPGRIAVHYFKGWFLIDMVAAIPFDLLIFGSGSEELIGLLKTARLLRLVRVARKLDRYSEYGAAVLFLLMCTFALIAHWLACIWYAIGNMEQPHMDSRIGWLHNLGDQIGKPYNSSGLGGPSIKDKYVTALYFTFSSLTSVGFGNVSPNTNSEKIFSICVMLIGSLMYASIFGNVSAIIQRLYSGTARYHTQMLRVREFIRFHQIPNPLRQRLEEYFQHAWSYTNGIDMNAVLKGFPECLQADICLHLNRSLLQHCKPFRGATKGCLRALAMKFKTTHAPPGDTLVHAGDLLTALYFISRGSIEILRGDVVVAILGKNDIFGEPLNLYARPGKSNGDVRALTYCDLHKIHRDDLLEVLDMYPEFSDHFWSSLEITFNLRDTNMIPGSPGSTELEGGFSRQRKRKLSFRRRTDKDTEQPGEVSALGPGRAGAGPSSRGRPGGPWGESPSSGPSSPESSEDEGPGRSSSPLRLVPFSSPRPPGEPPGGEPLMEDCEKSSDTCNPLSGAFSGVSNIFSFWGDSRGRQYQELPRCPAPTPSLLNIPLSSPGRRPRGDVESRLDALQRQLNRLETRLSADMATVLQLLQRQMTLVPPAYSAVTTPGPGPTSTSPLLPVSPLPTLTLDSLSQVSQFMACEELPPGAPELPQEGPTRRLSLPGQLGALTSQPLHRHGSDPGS

Row | Structure (SMILES) | IC50 [1] [nM] | IC50 [2] [nM] | IC50 [3] [nM]
1 | N#Cc1cnc(Nc2cc(-c3c(OCCCN)ccc4cccnc34)[nH]n2)cn1 [Example 1, 5-({5-[7-(3-aminopropoxy)quinolin-8-yl]-1H-pyrazol-3-yl}amino)pyrazine-2-carbonitrile] | 4.9 | 0.37 | –
2 | N#Cc1cnc(Nc2cc(-c3c(OCCCN)ccc4ccoc34)[nH]n2)cn1 [Example 2, 5-({5-[6-(3-aminopropoxy)-1-benzofuran-7-yl]-1H-pyrazol-3-yl}amino)pyrazine-2-carbonitrile] | 2.9 | 0.25 | –
3 | N#Cc1cnc(Nc2cc(-c3c(OCCCN)ccc4c3OCC4)[nH]n2)cn1 [Example 3, 5-({5-[6-(3-aminopropoxy)-2,3-dihydro-1-benzofuran-7-yl]-1H-pyrazol-3-yl}amino)pyrazine-2-carbonitrile] | 4 | – | 530
4 | N#Cc1cnc(Nc2cc(-c3c(OCC4(CN)CC4)ccc4c3OCC4)[nH]n2)cn1 [Example 4, 5-{[5-(6-{[1-(aminomethyl)cyclopropyl]methoxy}-2,3-dihydro-1-benzofuran-7-yl)-1H-pyrazol-3-yl]amino}pyrazine-2-carbonitrile] | 9.1 | 0.27 | 300
5 | CC1(COc2ccc3c(c2-c2cc(Nc4cnc(C#N)cn4)n[nH]2)OCC3)CNC1 [Example 5, 5-[(5-{6-[(3-methylazetidin-3-yl)methoxy]-2,3-dihydro-1-benzofuran-7-yl}-1H-pyrazol-3-yl)amino]pyrazine-2-carbonitrile] | 6.7 | – | –
6 | N#Cc1cnc(Nc2cc(-c3c(OCCCN)cnc4ccnn34)[nH]n2)cn1 [Example 7, 5-({5-[6-(3-aminopropoxy)pyrazolo[1,5-a]pyrimidin-7-yl]-1H-pyrazol-3-yl}amino)pyrazine-2-carbonitrile] | 469 | 1.71 | –
7 | N#Cc1cnc(Nc2cc(-c3c(OCC(F)(F)CN)cnc4cccnc34)[nH]n2)cn1 [Example 9, 5-({5-[3-(3-amino-2,2-difluoropropoxy)-1,5-naphthyridin-4-yl]-1H-pyrazol-3-yl}amino)pyrazine-2-carbonitrile] | 4.7 | 0.64 | –
8 | N#Cc1cnc(Nc2cc(-c3c(OCC4(CN)CC4)cnc4cccnc34)[nH]n2)cn1 [Example 10, 5-{[5-(3-{[1-(aminomethyl)cyclopropyl]methoxy}-1,5-naphthyridin-4-yl)-1H-pyrazol-3-yl]amino}pyrazine-2-carbonitrile] | 6.6 | 0.34 | –
9 | CC1(COc2cnc3cccnc3c2-c2cc(Nc3cnc(C#N)cn3)n[nH]2)CNC1 [Example 11, 5-[(5-{3-[(3-methylazetidin-3-yl)methoxy]-1,5-naphthyridin-4-yl}-1H-pyrazol-3-yl)amino]pyrazine-2-carbonitrile] | 14.8 | 0.39 | –
10 | N#Cc1cnc(Nc2cc(-c3c(OCCCN)cnc4c3OCC4)[nH]n2)cn1 [Example 13, 5-({5-[6-(3-aminopropoxy)-2,3-dihydrofuro[3,2-b]pyridin-7-yl]-1H-pyrazol-3-yl}amino)pyrazine-2-carbonitrile] | 20 | 0.42 | –
11 | CC1(COc2cnc3c(c2-c2cc(Nc4cnc(C#N)cn4)n[nH]2)OCC3)CNC1 [Example 15, 5-[(5-{6-[(3-methylazetidin-3-yl)methoxy]-2,3-dihydrofuro[3,2-b]pyridin-7-yl}-1H-pyrazol-3-yl)amino]pyrazine-2-carbonitrile] | 7.2 | 0.23 | –
12 | Cc1nc2ccc(OCCCN)c(-c3cc(Nc4cnc(C#N)cn4)n[nH]3)c2o1 [Example 16, 5-({5-[6-(3-aminopropoxy)-2-methyl-1,3-benzoxazol-7-yl]-1H-pyrazol-3-yl}amino)pyrazine-2-carbonitrile] | 489 | 0.45 | –
13 | N#Cc1cnc(Nc2cc(-c3c(OCC4(CN)CC4)ccc4ccnn34)[nH]n2)cn1 [Example 17, 5-{[5-(6-{[1-(aminomethyl)cyclopropyl]methoxy)pyrazolo[1,5-a]pyridin-7-yl)-1H-pyrazol-3-yl]amino}pyrazine-2-carbonitrile] | 3.7 | 0.27 | –
14 | CC1(COc2ccc3ccnn3c2-c2cc(Nc3cnc(C#N)cn3)n[nH]2)CNC1 [Example 18, 5-[(5-{6-[(3-methylazetidin-3-yl)methoxy]pyrazolo[1,5-a]pyridin-7-yl)-1H-pyrazol-3-yl)amino]pyrazine-2-carbonitrile] | 4.7 | 0.34 | –
15 | N#Cc1cnc(Nc2cc(-c3c(OCC4(CN)CC4)ccc4ccoc34)[nH]n2)cn1 [Example 19, 5-{[5-(6-{[1-(aminomethyl)cyclopropyl]methoxy}-1-benzofuran-7-yl}-1H-pyrazol-3-yl]amino}pyrazine-2-carbonitrile] | 4.6 | 0.26 | –
16 | N#Cc1cnc(Nc2cc(-c3c(OCC4(CN)CC4(F)F)ccc4ccoc34)[nH]n2)cn1 (stereo not shown) [Example 20, 5-{[5-(6-{[1-(aminomethyl)-2,2-difluorocyclopropyl]methoxy)-1-benzofuran-7-yl)-1H-pyrazol-3-yl]amino}pyrazine-2-carbonitrile] | 16.3 | – | –
17 | N#Cc1cnc(Nc2cc(-c3c(O[C@@H]4CC[C@@H](N)C4)cnc4c3OCC4)[nH]n2)cn1 [Example 21, 5-{[5-(6-{[(1R,3R)-3-aminocyclopentyl]oxy)-2,3-dihydrofuro[3,2-b]pyridin-7-yl)-1H-pyrazol-3-yl]amino}pyrazine-2-carbonitrile] | 11.8 | – | –
18 | N#Cc1cnc(Nc2cc(-c3c(OCC4(C(F)F)CNC4)cnc4c3OCC4)[nH]n2)cn1 [Example 22, 5-{[5-(6-{[3-(difluoromethyl)azetidin-3-yl]methoxy}-2,3-dihydrofuro[3,2-b]pyridin-7-yl)-1H-pyrazol-3-yl]amino}pyrazine-2-carbonitrile] | 13.7 | 0.39 | –
19 | N#Cc1cnc(Nc2cc(-c3c(OCC4(F)CNC4)cnc4c3OCC4)[nH]n2)cn1 [Example 23, 5-[(5-{6-[(3-fluoroazetidin-3-yl)methoxy]-2,3-dihydrofuro[3,2-b]pyridin-7-yl}-1H-pyrazol-3-yl)amino]pyrazine-2-carbonitrile] | 6.8 | 0.3 | –
20 | C[C@@H](Oc1cnc2c(c1-c1cc(Nc3cnc(C#N)cn3)n[nH]1)OCC2)C1CNC1 [Example 25, 5-[(5-{6-[(1R)-1-(azetidin-3-yl)ethoxy]-2,3-dihydrofuro[3,2-b]pyridin-7-yl}-1H-pyrazol-3-yl)amino]pyrazine-2-carbonitrile] | 6.4 | 0.43 | –
21 | N#Cc1cnc(Nc2cc(-c3c(OC[C@H]4CCNC4)cnc4c3OCC4)[nH]n2)cn1 [Example 26, 5-{[5-(6-{[(3S)-pyrrolidin-3-yl]methoxy}-2,3-dihydrofuro[3,2-b]pyridin-7-yl)-1H-pyrazol-3-yl]amino}pyrazine-2-carbonitrile] | 9.4 | 0.34 | –
22 | CNCCCOc1cnc2c(c1-c1cc(Nc3cnc(C#N)cn3)n[nH]1)OCC2 [Example 27, 5-[(5-{6-[3-(methylamino)propoxy]-2,3-dihydrofuro[3,2-b]pyridin-7-yl}-1H-pyrazol-3-yl)amino]pyrazine-2-carbonitrile] | 8.5 | 0.22 | –
23 | C[C@@H](CN)COc1cnc2c(c1-c1cc(Nc3cnc(C#N)cn3)n[nH]1)OCC2 [Example 30, 5-[(5-{6-[(2S)-3-amino-2-methylpropoxy]-2,3-dihydrofuro[3,2-b]pyridin-7-yl}-1H-pyrazol-3-yl)amino]pyrazine-2-carbonitrile] | 14.8 | 0.43 | –
24 | C=C(CN)COc1cnc2c(c1-c1cc(Nc3cnc(C#N)cn3)n[nH]1)OCC2 [Example 31, 5-{[5-(6-{[2-(aminomethyl)prop-2-en-1-yl]oxy)-2,3-dihydrofuro[3,2-b]pyridin-7-yl)-1H-pyrazol-3-yl]amino}pyrazine-2-carbonitrile] | 13.8 | 0.31 | –
25 | NCCCOc1cnc2c(c1-c1cc(Nc3cnc(Cl)cn3)n[nH]1)OCC2 [Example 32, N-{5-[6-(3-aminopropoxy)-2,3-dihydrofuro[3,2-b]pyridin-7-yl]-1H-pyrazol-3-yl}-5-chloropyrazin-2-amine] | 21.5 | 0.33 | –
26 | COC(=O)c1cnc(Nc2cc(-c3c(OCCCN)cnc4c3OCC4)[nH]n2)cn1 [Example 33, methyl 5-({5-[6-(3-aminopropoxy)-2,3-dihydrofuro[3,2-b]pyridin-7-yl]-1H-pyrazol-3-yl}amino)pyrazine-2-carboxylate] | > 1000 | 9.28 | –
27 | N#Cc1cnc(Nc2cc(-c3c(O[C@@H]4CCC[C@H]4CN)cnc4cccnc34)[nH]n2)cn1 [Example 34, 5-{[5-(3-{[(1R,2S)-2-(aminomethyl)cyclopentyl]oxy}-1,5-naphthyridin-4-yl)-1H-pyrazol-3-yl]amino}pyrazine-2-carbonitrile] | 5.5 | 0.75 | –
28 | N#Cc1cnc(Nc2cc(-c3c(O[C@@H]4CCC[C@H](N)C4)cnc4cccnc34)[nH]n2)cn1 [Example 36, 5-{[5-(3-{[(1R,3S)-3-aminocyclohexyl]oxy}-1,5-naphthyridin-4-yl)-1H-pyrazol-3-yl]amino}pyrazine-2-carbonitrile] | 6 | 0.46 | –
29 | N#Cc1cnc(Nc2cc(-c3c(O[C@@H]4CC[C@@H](N)C4)cnc4cccnc34)[nH]n2)cn1 [Example 37, 5-{[5-(3-{[(1R,3R)-3-aminocyclopentyl]oxy}-1,5-naphthyridin-4-yl)-1H-pyrazol-3-yl]amino}pyrazine-2-carbonitrile] | 6.8 | 0.49 | –
30 | N#Cc1cnc(Nc2cc(-c3c(OCC4(CN)CC(F)(F)C4)cnc4cccnc34)[nH]n2)cn1 [Example 38, 5-{[5-(3-{[1-(aminomethyl)-3,3-difluorocyclobutyl]methoxy)-1,5-naphthyridin-4-yl)-1H-pyrazol-3-yl]amino}pyrazine-2-carbonitrile] | 8.1 | 0.93 | –
